From paper PMC3598812, “Evaluation of Anti-Hyperalgesic and Analgesic Effects of Two Benzodiazepines in Human Experimental Pain: A Randomized Placebo-Controlled Study” (PLoS ONE, 2013)
Several values for one entry are separate records, joined by “and”; a condition that tells them apart may be missing. Identical values can stand only once.

Assays:
[1] = test system: healthy male volunteers; experiment: Area of static hyperalgesia after intradermal capsaicin injection (512 mN von Frey hair); assay type: in vivo, human; conditions: for Change in the area of static hyperalgesia over time: main analysis, pairwise multiple comparisons within each drug; for Area of static hyperalgesia: single oral dose (clobazam 20 mg, clonazepam 1 mg, tolterodine 1 mg), mean (SD); for Change in the area of static hyperalgesia between 60 min and the measurement after flumazenil: subgroup analysis (n = 8), pairwise comparisons within each drug
From the text: Intradermal injection of capsaicin causes a brief stinging/burning pain at the injection site followed by development of secondary hyperalgesia, i.e. hyperalgesia detected at surrounding (not injected) skin [15], [16]. Secondary hyperalgesia after intradermal capsaicin is the result of sensitization of the central nervous system, which is one of the most relevant aspects of neuroplastic changes. This model was sensitive to the action of GABAergic compounds in animal studies.
The capsaicin solution was prepared by the Hospital Pharmacy and underwent sterile filtration into sterile septum-sealed vials. The sterile solution (1 mg/ml) was placed into sterile syringes and used for intradermal injection at room temperature. The skin temperature was measured using a digital thermometer, and was 32°C+/−1 in all subjects.
Subjects remained semi-supine during the experiment. Before capsaicin injection, the skin of the forearm was cleaned using an antiseptic wipe and allowed to air dry. The injection site was marked midway between the elbow and the wrist. Using a surgical skin marker, 4 lines were drawn through the injection site, so that they intersected the corners of a regular octagon (figure 2). These lines were marked every 0.5 cm from the center to the edges using a predefined grid. […] We determined the area of hyperalgesia by adding the areas of each triangle in which hyperalgesia was recorded.
Using a 1-ml tuberculin syringe fitted with a 27-gauge disposable needle, 100 µl capsaicin were injected […] into the skin, at the intersection of the 4 vectors previously drawn. A white skin elevation appeared during injection ensuring correct injection.
Static mechanical hyperalgesia was judged to be present when the subjects reported that applying a 512 mN von Frey Hair, 5 and 30 minutes after capsaicin injection, elicited pain with an intensity of at least 4 using a numerical rating scale (NRS, whereby 0 = no pain and 10 = worst pain). Only these subjects were included in the study. In order to document pain induction, the subject recorded pain intensity at injection and 5 minutes post-injection using a 10 cm visual analogue pain scale (VAS), whereby 0 = no pain and 10 = worst pain imaginable.
The area of secondary hyperalgesia was assessed using a calibrated 512 mN von Frey hair. The punctuated probe was moved along the 8 radial lines defined above, starting approximately 6 cm away from the site of injection, at each mark in steps of 0.5 cm. The weighted von Frey hair was placed gently on the skin and the load was applied for 2 seconds. The volunteers were asked to report when the pricking sensation changed to a pain sensation. At least 4 seconds elapsed between consecutive stimuli. This procedure was repeated for each vector. The number corresponding to the marker at which sensation changes as described above was noted and the individual numbers were used to calculate the area of hyperalgesia.
The flow of the experiment is illustrated in figure 3. After training, basal values for the pain tests were determined. The study medication was given immediately after the intradermal injection of capsaicin. Thus, basal values were recorded for all tests, except for those related to capsaicin injection. Because of the relatively short duration of hyperalgesia induced by capsaicin, the recordings of basal values before drug administration would yield a too short testing procedure.

[2] = test system: healthy male volunteers; experiment: Area of dynamic mechanical hyperalgesia after intradermal capsaicin (cotton wool stroking); assay type: in vivo, human; conditions: single oral dose (clobazam 20 mg, clonazepam 1 mg, tolterodine 1 mg), mean (SD)
Description: The area of dynamic mechanical hyperalgesia was determined by gently stroking a hand-held cotton wool tip on a 1 cm strip of the skin, at a rate of approximately 1 cm/s. Subjects were asked to report when the sensation changed from a non-painful to a painful sensation. The borders of dynamic hyperalgesia were delineated similarly to the determination of static hyperalgesia.

[3] = test system: healthy male volunteers; experiment: Pressure pain detection and tolerance thresholds (pressure algometer, 2nd toe); assay type: in vivo, human; conditions: mean (SD)
Description: Pain detection and tolerance thresholds were measured with an electronic pressure algometer (Somedic, Hörby, Sweden) applied at the center of the pulp of the 2nd toe. […] The pressure was increased from 0 at a rate of 30 kPa/s to a maximum pressure of 1200 kPa. Pain detection threshold was defined as the point at which the pressure sensation turned to pain. Pain tolerance threshold was defined as the point at which the subject felt the pain as intolerable. If the threshold was not reached at 1200 kPa, this value was considered as threshold. Three assessments were made and the mean of these 3 measurements were used for the data analysis.

[4] = test system: healthy male volunteers; experiment: Cutaneous repeated (20 stimuli) electrical stimulation, VAS; assay type: in vivo, human; set-up: AUC of VAS during 20 cutaneous electrical stimuli: unit not given beside the values; conditions: mean (SD); for Maximal VAS during 20 cutaneous electrical stimuli: VAS 0-10
Description: The stimulus burst used for single stimulus was repeated for a train of 20 pulses at 2 Hz, at an intensity corresponding to the temporal summation threshold. During this 10 s stimulation, pain intensity was continuously rated by the subject with an electronic VAS, and the area under the curve (AUC) was computed. Additionally, the maximal VAS during stimulation was recorded.

[5] = test system: patients / volunteers; conditions: cited from earlier work
[6] = baseline before medication, per drug session
[7] = single oral dose (clobazam 20 mg, clonazepam 1 mg, tolterodine 1 mg), 120 min after medication
[8] = single oral dose (clobazam 20 mg, clonazepam 1 mg, tolterodine 1 mg), after flumazenil 0.2 mg iv
[9] = single oral dose (clobazam 20 mg, clonazepam 1 mg, tolterodine 1 mg), 30 min after medication
[10] = single oral dose (clobazam 20 mg, clonazepam 1 mg, tolterodine 1 mg), 60 min after medication
[11] = single oral dose (clobazam 20 mg, clonazepam 1 mg, tolterodine 1 mg), 90 min after medication
[12] = placebo-controlled, double-blind trial, 114 outpatients with anxiety, mean doses 59 mg clobazam daily, 25 mg diazepam daily, ref Micromedex 2009
[13] = patients treated for panic disorder, ref Micromedex 2009

Compound	Change in the area of static hyperalgesia over time [1]	Area of static hyperalgesia ([1]; 30 min after medication)	Area of static hyperalgesia ([1]; 60 min after medication)	Area of static hyperalgesia ([1]; 90 min after medication)	Area of static hyperalgesia ([1]; 120 min after medication)	Area of static hyperalgesia ([1]; after flumazenil 0.2 mg iv)	Area of dynamic hyperalgesia ([2]; 30 min after medication)	Area of dynamic hyperalgesia ([2]; 60 min after medication)	Area of dynamic hyperalgesia ([2]; 90 min after medication)	Area of dynamic hyperalgesia ([2]; 120 min after medication)	Area of dynamic hyperalgesia ([2]; after flumazenil 0.2 mg iv)	Pressure pain detection threshold [3, 6]	Pressure pain detection threshold [3, 7]	Pressure pain detection threshold [3, 8]	Maximal VAS during 20 cutaneous electrical stimuli [4, 6]	Maximal VAS during 20 cutaneous electrical stimuli [4, 9]	Maximal VAS during 20 cutaneous electrical stimuli [4, 10]	Maximal VAS during 20 cutaneous electrical stimuli [4, 11]	Maximal VAS during 20 cutaneous electrical stimuli [4, 7]	Maximal VAS during 20 cutaneous electrical stimuli [4, 8]	further results
CN1C(=O)CC(=O)N(c2ccccc2)c2cc(Cl)ccc21 [Clobazam]	no statistically significant increase	39.7 (18.6) cm^2	44.3 (17.1) cm^2	43.0 (15.0) cm^2	43.6 (16.5) cm^2	43.8 (15.0) cm^2	22.3 (13.2) cm^2	22.9 (12.4) cm^2	22.4 (13.6) cm^2	16.7 (13.0) cm^2	21.3 (14.6) cm^2	432 (123) kPa	379 (130) kPa	393 (118) kPa	4.7 (1.8)	4.9 (2.2)	4.7 (1.9)	4.3 (2.0)	4.2 (1.8)	4.5 (1.7)	AUC of VAS during 20 cutaneous electrical stimuli [4, 6]: 332 (142); AUC of VAS during 20 cutaneous electrical stimuli [4, 9]: 338 (152); AUC of VAS during 20 cutaneous electrical stimuli [4, 10]: 341 (167); AUC of VAS during 20 cutaneous electrical stimuli [4, 11]: 328 (169); AUC of VAS during 20 cutaneous electrical stimuli [4, 7]: 314 (146); AUC of VAS during 20 cutaneous electrical stimuli [4, 8]: 339 (150); Effect on cognitive and psychomotor functions ([5]; 20 mg clobazam, unlike 2 mg clonazepam): did not affect significantly; Sedation compared with 1 mg of clonazepam ([5]; 20 mg of clobazam): less sedative; Dizziness, share of treated patients [5, 12]: 2%; Sedation, share of treated patients [5, 12]: 38%
O=C1CN=C(c2ccccc2Cl)c2cc([N+](=O)[O-])ccc2N1 [Clonazepam]	no statistically significant increase	37.9 (13.6) cm^2	45.6 (15.3) cm^2	43.4 (14.3) cm^2	41.9 (11.6) cm^2	39.4 (12.3) cm^2	22.4 (11.2) cm^2	19.0 (07.8) cm^2	21.7 (12.6) cm^2	16.8 (10.8) cm^2	19.2 (13.1) cm^2	416 (80) kPa	383 (100) kPa	389 (112) kPa	4.9 (1.6)	5.4 (2.0)	5.0 (2.3)	4.7 (2.1)	4.4 (1.6)	4.2 (1.6)	Change in the area of static hyperalgesia between 60 min and the measurement after flumazenil [1]: Decrease in the area of hyperalgesia after Clonazepam; Change in the area of static hyperalgesia between 60 min and the measurement after flumazenil ([1]; listed as clonazepam): significantly decreases; Pressure pain tolerance threshold [3, 6]: 685 (172) kPa and 749 (242) kPa; Pressure pain tolerance threshold [3, 7]: 636 (147) kPa and 712 (262) kPa; Pressure pain tolerance threshold [3, 8]: 390.8 (199) kPa and 734.7 (279) kPa; AUC of VAS during 20 cutaneous electrical stimuli [4, 6]: 359 (144); AUC of VAS during 20 cutaneous electrical stimuli [4, 9]: 352 (131); AUC of VAS during 20 cutaneous electrical stimuli [4, 10]: 349 (185); AUC of VAS during 20 cutaneous electrical stimuli [4, 11]: 351 (141); AUC of VAS during 20 cutaneous electrical stimuli [4, 7]: 344 (148); AUC of VAS during 20 cutaneous electrical stimuli [4, 8]: 322 (137); Dizziness, share of patients [5, 13]: 8%; Somnolence, share of patients [5, 13]: approximately 37%
